Assay results taken from PubChem BioAssay (NCI).
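Results reflect a 48-hour exposure of cells in 96-well plates to compound at five concentrations. Definition used: TGI = concentration required for complete inhibition of growth.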

Key:
Assay in all cases: DTP human tumour cell line panel, 48 h
[1] = system: CAKI-1 renal
[2] = system: NCI-H460 lung
[3] = system: SR leukemia
[4] = system: MCF7 breast
[5] = system: MDA-MB-231 breast
[6] = system: HL-60(TB) leukemia
[7] = system: HCT-116 colon
[8] = system: OVCAR-4 ovarian
[9] = system: MOLT-4 leukemia
[10] = system: HCC-2998 colon
[11] = system: PC-3 prostate
[12] = system: HT29 colon
[13] = system: OVCAR-3 ovarian
[14] = system: OVCAR-5 ovarian
[15] = system: SF-295 CNS
[16] = system: SK-MEL-5 melanoma
[17] = system: OVCAR-8 ovarian
[18] = system: SNB-19 CNS
[19] = system: HOP-62 NSCLC
[20] = system: SNB-75 CNS
[21] = system: DU-145 prostate
[22] = system: SN12C renal
[23] = system: HOP-92 NSCLC
[24] = system: HCT-15 colon
[25] = system: CCRF-CEM leukemia
[26] = system: UACC-62 melanoma
[27] = system: SK-OV-3 ovarian
[28] = system: LOX IMVI melanoma
[29] = system: BT-549 breast
[30] = system: COLO 205 colon
[31] = system: SK-MEL-28 melanoma
[32] = system: 786-0 renal
[33] = system: SW-620 colon
[34] = system: RXF 393 renal
[35] = system: TK-10 renal
[36] = system: A498 renal
[37] = system: NCI-H23 lung
[38] = system: NCI-H226 lung
[39] = system: UACC-257 melanoma
[40] = system: SF-268 CNS
[41] = system: ACHN renal
[42] = system: MDA-N
[43] = system: NCI-H522 lung
[44] = system: U251 CNS
[45] = system: SK-MEL-2 melanoma
[46] = system: T-47D breast
[47] = system: EKVX NSCLC
[48] = system: SF-539 CNS
[49] = system: IGROV1 ovarian
[50] = system: K-562 leukemia
[51] = system: MDA-MB-435
[52] = system: M14 melanoma
[53] = system: UO-31 renal
[54] = system: NCI/ADR-RES ovarian
[55] = system: HS 578T breast
[56] = system: A549 NSCLC
[57] = system: RPMI-8226 leukemia
[58] = system: MALME-3M melanoma
[59] = system: KM12 colon

C=C(C(=O)OC)N1C(=O)CC(C)C1=O (stereo not drawn)
TGI [1]: 4.38 µM | TGI [2]: 35.1 µM | TGI [3]: 6.9 µM | TGI [4]: 30.5 µM | TGI [5]: 34.1 µM | TGI [6]: 3.78 µM | TGI [7]: 19.5 µM | TGI [8]: 37.4 µM | TGI [9]: 10.7 µM | TGI [10]: 31.4 µM | TGI [11]: 30.4 µM | TGI [12]: 25.2 µM | TGI [13]: 22.4 µM | TGI [14]: 29.8 µM | TGI [15]: > 72 µM | TGI [16]: 32.7 µM | TGI [17]: 43.1 µM | TGI [18]: 58.8 µM | TGI [19]: 35.6 µM | TGI [20]: 36.2 µM | TGI [21]: 29.8 µM | TGI [22]: 31.1 µM | TGI [23]: 3.98 µM | TGI [24]: 23.6 µM | TGI [25]: 4.62 µM | TGI [26]: 29.6 µM | TGI [27]: 98.9 µM | TGI [28]: 19.1 µM | TGI [29]: 30.9 µM | TGI [30]: 14.3 µM | TGI [31]: 23.1 µM | TGI [32]: 23.5 µM | TGI [33]: 25.5 µM | TGI [34]: 26.1 µM | TGI [35]: 17.7 µM | TGI [36]: 36.8 µM | TGI [37]: 33.5 µM | TGI [38]: 70.3 µM | TGI [39]: 25.8 µM | TGI [40]: 36.4 µM | TGI [41]: 7.51 µM | TGI [42]: 28.9 µM | TGI [43]: 5.05 µM | TGI [44]: 35 µM | TGI [45]: 33.9 µM | TGI [46]: 33.1 µM | TGI [47]: 29.9 µM | TGI [48]: 36 µM | TGI [49]: 31.5 µM | TGI [50]: 12.8 µM | TGI [51]: 37.2 µM | TGI [52]: 29.6 µM | TGI [53]: 26.1 µM | TGI [54]: 36 µM | TGI [55]: 71.2 µM | TGI [56]: 44.2 µM | TGI [57]: 12.7 µM | TGI [58]: 5 µM | TGI [59]: 43.8 µM

C=CCCCCNC(=O)C[C@@H]1C2=C(CC[C@H]1O[Si](C)(C)C(C)(C)C)N1C(=O)CCC/C=C\C1C2 (stereo partly drawn)
TGI [1]: 24.8 µM | TGI [2]: 27.9 µM | TGI [3]: 23.4 µM | TGI [4]: 24.7 µM | TGI [5]: 26.1 µM | TGI [6]: 13.6 µM | TGI [7]: 26 µM | TGI [8]: 25 µM | TGI [9]: 20 µM | TGI [10]: 22.1 µM | TGI [11]: 24.4 µM | TGI [12]: 24.7 µM | TGI [13]: 28 µM | TGI [14]: 29.5 µM | TGI [15]: 30.2 µM | TGI [16]: 27.1 µM | TGI [17]: 28.2 µM | TGI [18]: 27.4 µM | TGI [19]: 35.5 µM | TGI [20]: 30.7 µM | TGI [21]: 30.1 µM | TGI [22]: 28.8 µM | TGI [23]: 23.1 µM | TGI [24]: 27 µM | TGI [25]: 25.7 µM | TGI [26]: 25.5 µM | TGI [27]: 31.1 µM | TGI [28]: 31.4 µM | TGI [29]: 30.1 µM | TGI [30]: 26.7 µM | TGI [31]: 29.7 µM | TGI [32]: 28.7 µM | TGI [33]: 27.4 µM | TGI [34]: 23.7 µM | TGI [35]: 29.6 µM | TGI [36]: 28.4 µM | TGI [37]: 27.7 µM | TGI [38]: 29.9 µM | TGI [39]: 25.8 µM | TGI [40]: 29.9 µM | TGI [41]: 28.7 µM | TGI [42]: 29.8 µM | TGI [43]: 24.7 µM | TGI [44]: 26.3 µM | TGI [45]: 26.1 µM | TGI [46]: 29.8 µM | TGI [47]: 31.1 µM | TGI [48]: 31.3 µM | TGI [49]: 29.7 µM | TGI [50]: 20.9 µM | TGI [51]: 28.4 µM | TGI [52]: 27.4 µM | TGI [53]: 27.2 µM | TGI [54]: 24.7 µM | TGI [55]: 32.9 µM | TGI [56]: 25.8 µM | TGI [57]: 22.1 µM | TGI [58]: 28.2 µM | TGI [59]: 28.2 µM
